Reference: paper PMC11758220, “Identification of a Privileged Scaffold for Inhibition of Sterol Transport Proteins through the Synthesis and Ring Distortion of Diverse, Pseudo-Natural Products” (ACS Central Science, 2025)

Tests used:
Type in all cases: binding
STARD3 = target: T1, STARD3 (Homo sapiens, UniProt Q14849); test: Differential scanning fluorimetry (DSF), STARD3; details: for ΔTm at 10 µM / STARD3 (DSF) ΔTm: single dose, Dose = 10 µM; for Kd: apparent Kd, mean of three experiments run in technical duplicates, read-out: STARD3 Kd,app (DSF); for STARD3 (DSF) ΔTmmax: maximal thermal shift
T1 construct: STARD3(216-444); made in house; host or cells: E. coli BL21(DE3)
T1 sequence (Q14849 216-444): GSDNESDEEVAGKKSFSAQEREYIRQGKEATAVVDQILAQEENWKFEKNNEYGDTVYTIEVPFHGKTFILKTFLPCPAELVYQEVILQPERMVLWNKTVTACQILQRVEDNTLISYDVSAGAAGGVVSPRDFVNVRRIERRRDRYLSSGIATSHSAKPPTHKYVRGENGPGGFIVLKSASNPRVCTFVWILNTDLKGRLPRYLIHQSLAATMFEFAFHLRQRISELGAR
Text: (§1) Protein expression constructs
(§2) Human ASTER domains of Aster-A(359-547), -B(364-552) and -C(318-504) were subcloned into a pGEX-6p-2rbs vector, thus introducing the cloning artifact ‘GPLGS’.3 The pGEX-6P-1-GST-OSBP(377- […]
(§3) a gift from James H. Hurley (University of California).4 The pHIS_2His6_Thrombin_STARD4(2-205;C75S) plasmid was a gift from Young Jun Im (Chonnam National University).5 STARD5A was a gift from Nicola Burgess-Brown (Addgene plasmid #42392; http://n2t.net/addgene:42392; […]
(§4) Protein expression and purification […]
(§5) vectors including an N-terminal PreScission-cleavable glutathione S-transferase (GST)-tag were expressed in Escherichia coli (E. coli) OverExpress C41 in Terrific Broth (TB) medium for 16 h at 18 °C after the induction with 0.1 mM isopropyl β-D-1-thiogalactopyranoside (IPTG). Cells were harvested at 3500 × g for 15 minutes and lysed by sonication in buffer containing 50 mM HEPES pH 7.5, 300 mM NaCl, 10 %v/v glycerol, 5 mM dithiothreitol (DTT), 0.1 %v/v Triton X-100 and protease inhibitor mix HP plus (Serva). The lysate was purified by affinity chromatography on a GSTrap FF column (Cytiva) using an ÄKTA Start (Cytiva) in buffer containing 50 mM HEPES pH 7.5, 300 mM NaCl, 10 %v/v glycerol, 5 mM DTT and 0.01 %v/v Triton X-100. The GST-tag was cleaved overnight on the column at 4 °C. The Aster sterol binding domains were further purified by size-exclusion chromatography (SEC) on a HiLoad 16/600 Superdex 75 pg (Cytiva) in buffer containing 20 mM HEPES pH 7.5, 300 mM NaCl, 10 %v/v […]
(§6) STARD5(6-213) harboring an N-terminal His6-Tag were expressed in E. coli BL21(DE3) in Luria-Bertani Broth (LB) medium for approximately 16 h at 18 °C after induction with 0.15 mM IPTG. Cells were harvested at 3500 × g for 15 minutes and lysed by sonication in buffer containing 50 mM HEPES pH 7.5, 150 mM NaCl, 5 %v/v glycerol, 5 mM DTT, 0.1 %v/v Triton X -100 and ethylenediaminetetraacetic acid (EDTA)-free protease inhibitor cocktail (Sigma-Aldrich). The cleared lysate was purified by affinity chromatography on a Ni-NTA Superflow Cartridge (Qiagen) using an ÄKTA Start (Cytiva) in buffer containing 50 mM HEPES pH 7.5, 150 mM NaCl, 5 %v/v glycerol, 5 mM DTT. START domains were eluted by using elution buffer containing 50 mM HEPES pH 7.5, 150 mM NaCl, 5 %v/v glycerol, 5 mM DTT and 500 mM imidazole. Proteins were further purified by SEC on a HiLoad 16/600 Superdex 75 pg (Cytiva) in buffer containing 20 mM HEPES pH 7.5, 150 mM NaCl, 5 %v/v glycerol and 2 mM DTT.
(§7) The ORP domain of human OSBP(377-807) in the pGEX-6p-1 vector with an N-terminal PreScission-cleavable GST-tag was expressed in E. coli OverExpress C41 in LB medium for 16 h at 18 °C after induction with 0.1 mM IPTG. Cells were harvested at 3500 × g for 15 minutes and lysed by sonication in buffer containing 20 mM HEPES pH 7.5, 300 mM NaCl, 10 %v/v glycerol, 5 mM DTT, 0.1 %v/v Triton X-100 and EDTA-free protease inhibitor cocktail (Sigma-Aldrich). The cleared lysate was purified by affinity chromatography on a GSTrap HF column (Cytiva) using an ÄKTA Start (Cytiva) in buffer containing 20 mM HEPES pH 7.5, 300 mM NaCl, 10 %v/v glycerol, 5 mM DTT. OSBP(377 -807) was eluted by using elution buffer containing 20 mM HEPES pH 7.5, 300 mM NaCl, 10 %v/v glycerol, 5 mM DTT and 10 mM reduced glutathione. Proteins were further purified by SEC on a HiLoad 16/600 Superdex 75 pg (Cytiva) using an ÄKTA Explorer (Cytiva) in buffer containing 20 mM HEPES pH 7.5, 150 mM NaCl, 10 %v/v glycerol and 2 mM DTT.
(§8) The ORP domains of human ORP1(534-950) in pET24b(+) and ORP2(49-480) in the pET24b(+) vector including an N-terminal His6-Tag were expressed in E. coli BL21(DE3) in TB medium for approximately 16 h at 18 °C after induction with 0.1 mM IPTG. Cells were collected at 3500 × g for 15 minutes and lysed by sonification in buffer containing 10 mM Tris-HCl pH 8, 300 mM NaCl, 5 % glycerol, 2 mM DTT, 0.1 % Triton X-100 and EDTA-free protease inhibitor cocktail (Sigma-Aldrich). The cleared […]

Aster-B = target: T2, Aster-B (Homo sapiens, UniProt Q3KR37); test: Fluorescence polarisation (FP) competition with NBD-cholesterol, Aster-B; details: for IC50: mean of three experiments run in technical duplicates; for inhibition at 10 µM / Aster-B (FP) inhibition: single dose, Dose = 10 µM
T2 construct: -B(364-552); GST (PreScission-cleavable) (N, cleaved yes); made in house; host or cells: E. coli OverExpress C41
T2 sequence (Q3KR37 364-552): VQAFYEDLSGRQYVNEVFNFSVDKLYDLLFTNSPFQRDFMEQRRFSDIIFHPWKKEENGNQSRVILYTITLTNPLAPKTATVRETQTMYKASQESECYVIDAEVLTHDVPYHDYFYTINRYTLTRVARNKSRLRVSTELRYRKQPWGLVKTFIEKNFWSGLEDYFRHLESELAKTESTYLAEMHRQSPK
Text: as §1, §2, §3, §4, §5, §6, §7, §8

Aster-C = target: T3, Aster-C (Homo sapiens, UniProt Q8IYS0); test: Fluorescence polarisation (FP) competition with NBD-cholesterol, Aster-C; details: for IC50: mean of three experiments run in technical duplicates; for inhibition at 10 µM / Aster-C (FP) inhibition: single dose, Dose = 10 µM
T3 construct: -C(318-504); GST (PreScission-cleavable) (N, cleaved yes); made in house; host or cells: E. coli OverExpress C41
Text: as §1, §2, §3, §4, §5, §6, §7, §8

T3 sequence (Q8IYS0 318-504): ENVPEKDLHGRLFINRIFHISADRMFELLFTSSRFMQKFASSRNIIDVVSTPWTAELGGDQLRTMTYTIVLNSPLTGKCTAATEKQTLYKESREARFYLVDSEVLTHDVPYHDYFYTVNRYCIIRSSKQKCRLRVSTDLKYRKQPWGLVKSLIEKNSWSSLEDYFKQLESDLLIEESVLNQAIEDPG

Structure (SMILES) | ΔTm at 10 µM (STARD3) [°C] | IC50 (Aster-B) [µM] | inhibition at 10 µM (Aster-B) [%] | IC50 (Aster-C) [µM] | inhibition at 10 µM (Aster-C) [%] | Kd (STARD3) [µM] | STARD3 (DSF) ΔTmmax (STARD3) [°C] | Aster-C (FP) inhibition (Aster-C) [%] | STARD3 (DSF) ΔTm (STARD3) [°C] | Aster-B (FP) inhibition (Aster-B) [%]
C[C@]12CC[C@@H]3C[C@H]1CC[C@@]21C(=Nc2ccc(Br)cc21)O3 (racemic) [Compound 15b] | 0.3 | > 80 | 19 | > 80 | -1.6 |  |  |  |  | 
CC12CCC3CC1CCC21C(=Nc2ccc(N4CCOCC4)cc21)O3 (racemic) [Compound 19a] | 1.2 | > 80 | 14 | > 80 | -5 |  |  |  |  | 
CC12CCC3CC1CCC21C(=Nc2ccc(Br)cc21)O3 (single isomer, unassigned; (+)) [(+)-15b] | 0.244 | > 80 | 3.33 | > 80 | 0 | > 100 | 0.44 |  |  | 
CC12CCC3CC1CCC21C(=Nc2ccc(N4CCOCC4)cc21)O3 (single isomer, unassigned; (+)) [(+)-19a] | 1.5 | > 80 | 7.5 | > 80 |  | > 100 | 3.6 | -0.8 |  | 
CC12CCC3CC1CCC21C(=Nc2ccc(N4CCOCC4)cc21)O3 (single isomer, unassigned; (-)) [(−)-19a] |  | > 80 |  | > 80 |  | > 100 | 0.9 | -1.6 | 1.0 | 7
C[C@@]12CC[C@H]3C[C@@H]1CC[C@]21C(=Nc2ccc(Br)cc21)O3 [(−)-15b] | 0.5 | > 80 | 14 | > 80 | -0.8 | > 100 | 0.7 |  |  | 
CC(C)Oc1ccc(C(=O)Nc2nc3c(s2)CN(C(=O)OC(C)(C)C)CC3)cc1 [Autogramin-2, reference compound] |  | > 80 |  | > 80 |  | > 30 |  | -1.6 | 0.027 | 5
Cc1c2c(nc3ccccc13)[C@@]1(C)CC[C@@H](O)C[C@H]1CC2 [Compound 2a] | -0.0816 |  | 14 |  | -2.4 |  |  |  |  | 
C[C@]12CC[C@@H](O)C[C@H]1CCc1c2nc2ccccc2c1-c1ccccc1 [Compound 2b] |  |  |  |  |  |  |  | -5.6 | 0.0566 | 2.5
Cc1c2c(nc3cc(Br)ccc13)[C@@]1(C)CC[C@@H](O)C[C@H]1CC2 [Compound 2c] |  |  |  |  |  |  |  | -1.6 | -0.168 | 9
C[C@]12CC[C@@H](O)C[C@H]1CCc1c2nc2ccccc2c1-c1ccc(F)cc1 [Compound 2d] | 0.0456 |  | 7.5 |  | -2.4 |  |  |  |  | 
C[C@]12CC[C@@H](O)C[C@H]1CCc1c2nc2ccc(Cl)cc2c1-c1ccccc1 [Compound 2e] |  |  |  |  |  |  |  | -5 | -0.1 | 2.5
C[C@]12CC[C@@H](O)C[C@H]1CCc1c2[nH]c2ncccc12 [Compound 3] | -0.0743 |  | 8 |  | -3.2 |  |  |  |  | 
C[C@]12CC[C@@H](O)C[C@H]1CCC[C@]21Nc2ccccc2-n2cccc21 [Compound 4] | 0.5 |  | -0.833 |  |  |  |  | -5.6 | 0.9 | -1.67
C[C@]12CC[C@@H](O)C[C@H]1CCC[C@]21NC(=O)c2ccccc2N1 [Compound 5a] | -0.16 |  | 10 |  | 0 |  |  | -4 | 0.0244 | 7
C[C@]12CC[C@@H](O)C[C@H]1CCC[C@]21NC(=O)c2ccc(F)cc2N1 [Compound 5b] | -0.121 |  | 15 |  | -1.6 |  |  | -4 | 0.0138 | 8
COc1ccc2c(c1)C(=O)N[C@]1(CCC[C@@H]3C[C@H](O)CC[C@@]31C)N2 [Compound 5c] | 0.114 |  | 12 |  |  |  |  | -3.2 | 0.0624 | 10
C[C@]12CC[C@@H](O)C[C@H]1CCc1nc3ccccc3nc12 [Compound 7a] | -0.1 |  | 23 |  | 19 |  |  |  |  | 
Cc1cc2nc3c(nc2cc1C)[C@@]1(C)CC[C@@H](O)C[C@H]1CC3 [Compound 7b] | 0.0153 |  | 7.5 |  | 0.8 |  |  |  |  | 
C[C@]12CC[C@@H](O)C[C@H]1CCc1nc3cc(F)c(F)cc3nc12 [Compound 7c] |  |  |  |  |  |  |  | -4 | -0.124 | 4
C[C@]12CC[C@@H](O)C[C@H]1CCc1nc3cc(Cl)c(Cl)cc3nc12 [Compound 7d] |  |  |  |  |  |  |  | -4 | -0.1 | 11
C[C@]12CC[C@@H](O)C[C@H]1CCc1nc3cc(Br)c(Br)cc3nc12 [Compound 7e] |  |  |  |  |  |  |  | 1.6 | 0.138 | 12
C[C@]12CC[C@@H](O)C[C@H]1CCc1sc(N)nc12 [Compound 8a] | 0.0829 |  | 3.33 |  | 0 |  |  |  |  | 
